# Laboratory results from patent publication US10093973B2, “Polymerase compositions and methods” (LIFE TECHNOLOGIES CORPORATION, priority 2009, dated 2018).
# Experiments:
# Assay type in all cases: biochemical
# [1] = system: ωdN4P and extendible AF546 primer:template duplex; assay: Stopped-flow tpol measurement of Example 8; conditions: modified versus reference polymerase, ωdN4P 14 μM
# Method: In this example, the tpol values of an exemplary modified polymerase comprising the amino acid of SEQ ID NO: 8 and was measured and compared to the tpol value of an exemplary reference polymerase comprising the amino acid sequence of SEQ ID NO: 20. These kinetic parameters were evaluated using a stopped-flow assay wherein a mixture comprising an extendible dye-labeled primer:template duplex and test polymerase was mixed with a solution comprising terminally-labeled nucleotide tetraphosphates or terminally-labeled nucleotide hexaphosphates. These terminally-labeled nucleotides comprise terminal-phosphate-labeled nucleotides having an alkyl linker with a functional amine group attached to the dye. The fluorescence of the resulting mixture was monitored over time. Unless noted otherwise, all concentrations refer to the initial concentrations prior to mixing. […]
# Each primer-template duplex (200 nM) was preincubated with test polymerase (660 nM) and to form an E.DNA binary complex. This binary complex was mixed with the cognate omega-labeled nucleoside tetraphosphate (ωdN4P; 14 μM) in a stopped-flow experiment, and the fluorescence at both 546 nm and 647 nm was monitored following mixing. The averaged stopped-flow fluorescence traces were fitted with the double exponential function of Equation (2) to extrapolate the tpol value of the test polymerase: […]
# [2] = system: ωdN4P and non-extendible AF546 primer:template duplex; assay: Stopped-flow t−1 measurement of Example 7; conditions: modified versus reference polymerase, ωdN4P 14 μM
# Method: In this example, the t−1 values of an exemplary modified polymerase comprising the amino acid of SEQ ID NO: 8 and an exemplary reference polymerase comprising the amino acid sequence of SEQ ID NO: 20 were measured and compared. These kinetic parameters were evaluated using an assay system wherein mixtures comprising a test polymerase and a primer:template duplex were mixed in a stopped-flow assay with nucleotides. To measure t−1, the primer used to form the primer:template duplex was a non-extendible primer including a dideoxynucleotide at its 3′ end, and the template was a synthetic DNA template comprising a donor Alexa Fluor 546 moiety at its 5′ end. […] The ternary complex was mixed with unlabeled nucleotides in a stopped-flow experiment, and the resulting fluorescence was monitored as described below. […]
# Preincubated mixtures comprising 200 nM of a primer:templex duplex, 660 nM of test polymerase, and 14 μM of ωdN4P were prepared and then mixed with a solution comprising the unlabeled cognate nucleotide (50 μM) in a stopped-flow apparatus. The fluorescence at both 546 nm and 647 nm was monitored following mixing. The averaged stopped-flow fluorescence traces were fitted with a single exponential function having the form of Equation (1) to extrapolate the t−1 value of the test polymerase.
# [3] = system: AF647-C6-dG6P in [enzyme.DNA.nucleotide] ternary complex with dideoxy-primer/template duplex; assay: Stopped-flow measurement of t−1 (nucleotide dissociation from ternary complex); parameters: unit not given here; conditions: t−1 = 1/k−1; ternary complex with 7 μM AF647-C6-dG6P chased with 50 μM non-labeled nucleotide, 2 mM MnCl2
# Method: Stopped-Flow Measurements of t−1
# The stopped-flow techniques for measuring t−1 ([…]) followed the techniques described by M. Bakhtina (2009 Biochemistry 48:3197-3208).
# The rate of the nucleotide dissociation ([…]) from the ternary complex of [enzyme.DNA.nucleotide] was measured in an Applied Photophysics SX20 stopped-flow spectrometer by monitoring changes […] a duplex Alexa fluor 546 dye-labeled-DNA template following the mixing of the [enzyme.DNA.labeled nucleotide] ternary complex with 50 μM cognate non-labeled deoxynucleoside triphosphate in a buffer containing 50 mM Tris-HCl (pH 7.5), 50 mM NaCl, 4 mM DTT, 0.2% BSA, and 2 mM MnCl2.
# The ternary complexes were prepared using: 330 nM polymerase, 100 nM template/primer duplex, and 7 μM terminal phosphate-labeled nucleotides (AF647-C6-dG6P).
# The averaged stopped-flow fluorescence traces (>1.5 msec) were fitted with a single exponential equation (2) to extrapolate the rate of the nucleotide dissociation (k−1) from the [enzyme.DNA.nucleotide] ternary complex. Fluorescence=A1*e^−k−1*t+C (equation 2) where A1 represents the corresponding fluorescence amplitude, C is an offset constant, and k−1 and the observed rate constants for the fluorescence transition.
# [4] = system: AF647-C6-dG6P and Alexa Fluor 546 dye-labeled primer-template duplex; assay: Stopped-flow measurement of tpol (nucleotide incorporation kinetics); parameters: unit not given here; conditions: tpol = 1/kpol; 7 μM AF647-C6-dG6P, 330 nM polymerase, 100 nM template/primer duplex, 2 mM MnCl2
# Method: In this example, the t−1 and tpol values of a Phi-29 polymerase comprising the amino acid sequence of SEQ ID NO: 1 and a modified B103 polymerase comprising the amino acid sequence of SEQ ID NO: 8 (referred to as “mB103 in the table below) and further including amino acid substitutions at various positions were measured using a stopped-flow procedure. The stopped-flow techniques for measuring tpol (1/kpol) followed the techniques described by MP Roettger (2008 Biochemistry 47:9718-9727; M. Bakhtina 2009 Biochemistry 48:3197-320).
# Stopped-Flow Measurements of tpol
# The template sequence (SEQ ID NO: 44) further included an Alexa Fluor 546 dye moiety bonded to the 5′ position of the template.
# The kinetics of nucleotide incorporation by each polymerase was measured in an Applied Photophysics SX20 stopped-flow spectrometer by monitoring changes in fluorescence from the dye-labeled primer-template duplex complexed to enzyme, following the mixing of the enzyme-DNA complex with dye-labeled nucleotides. These dye-labeled nucleotides comprise terminal-phosphate-labeled nucleotides having an alkyl linker with a functional amine group attached to the dye, and have the general structure shown in FIG. 11. This structure includes a sugar bonded to a hexaphosphate chain at the 5′ carbon position, and to a nucleotide base (denoted as “N”). The terminal phosphate group of the hexaphosphate is linked to a 6-carbon linker, and the other end of the 6-carbon linker is attached to a dye moiety (denoted as “dye”), typically through an amide bond. In this example, the particular dye-labeled nucleotide added was a labeled nucleotide hexaphosphate comprising a guanine base at the N (base) position and an Alexa Fluor 647 (AF647) at the dye position, and is referred to herein as “AF647-C6-dG6P”.
# The primer and template were annealed to form a dye-labeled primer-template duplex using standard methods. This duplex was preincubated with polymerase. The mixture included 330 nM recombinant DNA polymerase, 100 nM template/primer duplex in buffer (“reaction buffer”) comprising 50 mM Tris-HCl, pH 7.5, 50 mM NaCl, 4 mM DTT, 0.2% BSA, and 2 mM MnCl2. The dye-labeled nucleotide AF647-C6-dG6P was then added to a final concentration of 7 μM, and the resulting fluorescence was monitored over time.
# The averaged (5 traces) stopped-flow fluorescence traces (>1.5 ms) were fitted with a double exponential equation (1) to extrapolate the rates of the nucleotide binding and product release, Fluorescence=A1*e^−k1*t+A2*e^−kpol*t+C (equation 1) where A1 and A2 represent corresponding fluorescence amplitudes, C is an offset constant, and k1 and kpol are the observed rate constants for the fast and slow phases of the fluorescence transition, respectively.
# [5] = system: Invitrogen Low Mass ladder; assay: Exonuclease activity assay; conditions: 2, 4 or 10 μg enzyme, 16 hours at 37° C., visual assessment of ladder bands
# Method: An assay comparing the endogenous exonuclease activity of a reference polymerase, T7 DNA polymerase, with the exonuclease activity of a polymerase comprising the amino acid of SEQ ID NO: 7, was performed. Exonuclease activity was measured by incubating 2, 4 or 10 μg of each enzyme sample with 7.5 μL Invitrogen Low Mass ladder, (10068-013) in a 50 μL reaction containing 10 mM Tris, pH 7.5, 50 mM NaCl and 10 mM MgCl2 for 16 hours at 37° C. in an ABI 9700 PCR machine. The samples were resolved via electrophoresis on a 1.2% E-Gel (Life Technologies). The extent of exonuclease activity was estimated by visually assessing the disappearance of the bands of the Low Mass ladder, as compared to negative control reactions, to which water (“W”) or enzyme storage buffer (“SB”) was added instead of purified polymerase).
# [6] = system: hairpin-template, test nanoparticle; assay: Nanoparticle tolerance assay (primer extension with and without test nanoparticle); conditions: 100 nM polymerase, 100 nM nanoparticle, 23° C.
# Method: The nanoparticle tolerance of exemplary modified and reference polymerases was measured and compared. The nucleotide incorporation activity of an exemplary modified polymerase comprising the amino acid sequence of SEQ ID NO: 19 and further comprising the amino acid substitution D175A was measured both in the absence and presence of equimolar amounts of a test nanoparticle. The results were compared to those of an exemplary reference Phi-29 polymerase comprising the amino acid sequence of SEQ ID NO: 20.
# Primer extension activity was measured using an assay wherein free pyrophosphate released as a result of extension of a primer:template duplex is detected as a fluorescent product. […] The resulting fluorescence emissions were monitored as a function of time using a plate reader (Molecular Devices, SpectraMax M5). Reactions without nucleotides were also monitored as negative controls. Reactions were monitored for 20 minutes or until the samples reached saturation.
# Exemplary results are depicted in FIG. 5, which provides a graph of relative fluorescence observed in each sample (RFU, arbitrary units, Y axis) against time (seconds, X axis). […] Primer extension activity was measured as the average slope of the curve obtained by plotting fluorescence (RFU) vs. time (seconds, X axis) between the zero time point and at 5 minutes. […]
Substance,t−1 [3],tpol [4],also measured
SEQ ID NO: 1: exemplary polymerase of the bacteriophage Phi-29 [reference compound],–,–,estimated tpol values [1]: comparable; estimated t−1 values [2]: comparable
mB103 + D507H: modified B103 polymerase of SEQ ID NO: 8 with substitution D507H,16,7,–
"T7 DNA polymerase: reference polymerase, positive control for exonuclease activity [reference compound]",–,–,exonuclease activity [5]: comparable levels of exonuclease activity
mB103 + H370Y: modified B103 polymerase of SEQ ID NO: 8 with substitution H370Y,12,15,–
mB103 + E371R: modified B103 polymerase of SEQ ID NO: 8 with substitution E371R,17,11,–
mB103 + H370R: modified B103 polymerase of SEQ ID NO: 8 with substitution H370R,43,17,–
SEQ ID NO: 7: B103 polymerase variant with substitutions F383L and D384N,–,–,exonuclease activity [5]: comparable levels of exonuclease activity
mB103 + E371Y: modified B103 polymerase of SEQ ID NO: 8 with substitution E371Y,7,11,–
mB103 + K509Y: modified B103 polymerase of SEQ ID NO: 8 with substitution K509Y,20,10,–
reference Phi-29 polymerase: reference Phi-29 polymerase of Example 5; SEQ ID NO: 20 or SEQ ID NO: 1 with N62D [reference compound],–,–,nanoparticle tolerance [6]: 50%; loss in primer extension activity in the presence of equimolar amounts of the test nanoparticle ([6]; slope zero to 5 minutes): 50%
mB103 + D507G: modified B103 polymerase of SEQ ID NO: 8 with substitution D507G,13,11,–
